Read-outs that look alike come from different tables or passages of the source.
Tests used:
[1] = im, swiss mice; cited from earlier work
[2] = test system: uncomplicated malaria; details: cited from earlier work
[3] = test system: cerebral malaria; details: comatose cerebral malaria cases; quinine intravenous; cited from earlier work
[4] = test system: P. falciparum; details: cited from earlier work
[5] = test system: P. falciparum; details: 211 patients of complicated P. falciparum malaria; cited from earlier work
[6] = test system: P. yoelii nigeriensis; assay: Curative dose against P. yoelii nigeriensis in swiss mice; format: in vivo, Plasmodium yoelii nigeriensis; details: for three days (x3), intramuscular
Description: The curative dose of α,β arteether against P. yoelii nigeriensis in gwiss mice (a murine model equivalent to P. falciparum in human) is 7.5 mg/kg for three days. Sulfadoxin/pyrimethtnine combination is usually given for P. falciparum infection, to adult humans as a single dose of 1500 mg sulfadoxin and 75 mg pyremethamine (usually in 3 tablets of 500 mg sulfadoxin and 25 mg pyremethamine) (practical chemotherapy of malaria, WHO, Geneva 1990). For children if they are below 40 kg, only 2 tablets are recommended. […] Although resistance to Fansidar is documented in expatriates in East Africa (Schapira et al. 1986), the drug is reported to be generally effective in the indigenous population (Spencer et al. 1984) and it is treated as second line of drug and is the only affordable drug for chloroquine resistant cases in developing countries. In combination the proposed doses of α,β arteether plus sulfadoxin and pyrimethamine for humans would be 150 mg×3 (im injections) or 450-750 mg×5 (oral dose) of α,β arteether with three tablets of 500 mg sulfadoxin and 25 mg of pyrimethamine for P. falciparum. The proposed combination therapy will certainly reduce the incidence of recrudescence and new infection in high transmission areas.

[7] = test system: multi drug resistant P. yoelii nigeriensis; assay: α/β arteether (oral, aqueous) and Fansidar (oral) against multi drug resistant P. yoelii nigeriensis in Swiss mice; format: in vivo, Plasmodium yoelii nigeriensis
Description: Experimental: Swiss mice (20±2 g) were inoculated intra peritoneal with 1×10^6 Plasmodium yoelii nigeriensis (malaria parasite) infected mouse red blood cells. Fansidar was suspended in tween 80 and then in triple distilled water and different doses i.e. 2.5 and 1.25 mg/kg were administered in previously infected Swiss mice. Fansidar was administered by oral route for only 1 day i.e. on day 0 α/β Arteether was dissolved in tween 80 and triple distilled water and doses i.e. 24 and 12 and 6 mg/kg×4 were given orally in combination with 2.5 and 1.25 mg/kg ×1 dose of Fansidar. These doses of both the drugs were also given individually for comparison. One group of mice was kept as infected control. After treatment parasitaemia was recorded from tail blood smears of individual mouse and their mean parasitaemia was calculated.

[8] = test system: P. falciparum; details: arteether 150 mg i.m. daily for three days, uncomplicated P. falciparum malaria, cited from earlier work
[9] = test system: multi drug resistant P. yoelii nigeriensis; assay: Shorter regimen of α/β arteether (im) and Fansidar (oral) against multi drug resistant P. yoelii nigeriensis in Swiss mice; format: in vivo, Plasmodium yoelii nigeriensis
Description: Experimental: Swiss mice (20±2 g) were inoculated intra peritoneal with 1×10^6 Plasmodium yoelii nigeriensis (malaria parasite) infected mouse red blood cells. Faosidar was suspended in tween 80 and then in triple distilled water and 2.5 mg/kg dose was administered in previously infected Swiss mice. Fansidar was administered by oral route for only 1 day i.e. on day 0 or day 1. α/β Arteether was dissolved in neutralized and sterilized ground nut oil and doses i.e. 7.5 mg/kg×1, ×2, 5 mg/kg×1, ×2 by intramuscular route were given in combination with 2.5 mg/kg ×1 dose of Fansidar. These doses of both the drugs were given individually for comparison. One group of mice was kept as infected control. After treatment parasitaemia was recorded from tail blood smears of individual mouse.

[10] = test system: multi drug resistant P. yoelii nigeriensis; assay: Arteether (im, x3) and Fansidar (oral, x1) in combination against multi drug resistant P. yoelii nigeriensis infection in Swiss mice; format: in vivo, Plasmodium yoelii nigeriensis
Description: Experimental: Swiss mice (20±2 g) were inoculated intra peritoneal with 1×10^6 Plasmodium yoelii nigeriensis (malaria parasite) infected mouse red blood cells. Fansidar was suspended in tween 80 and then in triple distilled water and two different doses, i.e. 1.25-2.5 mg/kg were administered in previously infected Swiss mice. Fansidar was administered by oral route for only 1 day. α/β Arteether was dissolved in neutralized and sterilized ground nut oil and doses i.e. 1.25, 1.78 and 2.5mg/kg were administered by intramuscular route for 3 days. In other groups of infected mice these drugs were given individually for comparison. 2.5, 1.78 and 1.25 mg/kg and α/β arteether were given in combinations with 2.5 and 1.25 mg/kg Fansidar. One group of mice was kept as infected control. After treatment parasitaemia was recorded from tail blood smears of individual mouse. (Table-1)

[11] = test system: multi drug resistant P. yoelii nigeriensis; assay: Variable regimen of α/β arteether (oral, in oil) and Fansidar (oral) against multi drug resistant P. yoelii nigeriensis in Swiss mice; format: in vivo, Plasmodium yoelii nigeriensis
Description: Experimental: Swiss mice (20±2 g) were inoculated intra peritoneal with 1×10^6 Plasmodium yoelii nigeriensis (malaria parasite) infected mouse red blood cells. Fansidar was suspended in tween 80 and then in triple distilled water and different doses i.e., 5, 2.5 and 1.25 mg/kg were admimstered in previously infected Swiss mice. Fansidar was administered by oral route for only 1 day i.e. on day 0. α/β Arteether was dissolved in neutralized and sterilized ground nut oil and doses i.e. 25 mg/kg×1 ×4, 12.5mg/kg×4 were given orally in combination with 5.0, 2.5 and 1.25 mg/kg ×1 dose of Fansidar. These doses of both the drugs were given individually for comparison. One group of mice was kept as infected control. After treatment parasitaemia was recorded from tail blood smears of individual mouse and their mean parasitaemia was calculated.

[12] = arteether 6 mg/kg x4 oral (aqueous) alone
[13] = arteether 12 mg/kg x4 oral (aqueous) alone
[14] = arteether 24 mg/kg x4 oral (aqueous) alone
[15] = arteether 5.0 mg/kg x1 (day 0) im alone
[16] = arteether 5.0 mg/kg x2 (days 0, 1) im alone
[17] = arteether 7.5 mg/kg x1 (day 0) im alone
[18] = arteether 7.5 mg/kg x2 (days 0, 1) im alone
[19] = arteether 1.25 mg/kg x3 im alone
[20] = arteether 1.78 mg/kg x3 im alone
[21] = arteether 2.5 mg/kg x3 im alone
[22] = arteether 12.5 mg/kg x4 oral (in oil) alone
[23] = arteether 25.0 mg/kg x4 oral (in oil) alone

CO[C@H]1O[C@@H]2O[C@@]3(C)CC[C@H]4[C@H](C)CC[C@@H]([C@H]1C)[C@@]24OO3 [artemether]
LD50 [1]: 263 mg/kg

C[C@@H]1CC[C@H]2[C@@H](C)C(=O)O[C@@H]3O[C@@]4(C)CC[C@@H]1[C@]32OO4 [artemisiain, artemisinin]
recrudescence ([2]; 20 mg/kg x3 days): 38%
recrudescence ([2]; 20 mg/kg x5 days): 15%
reduction in parasitaemia (time) [3]: 16 h

C[C@H]1[C@H](OC(=O)CCC(=O)O)O[C@@H]2O[C@@]3(C)CC[C@H]4[C@H](C)CC[C@@H]1[C@@]24OO3 [artesunate]
LD50 [1]: 475 mg/kg

C=C[C@H]1C[N@@]2CC[C@H]1C[C@H]2[C@H](O)c1ccnc2ccc(OC)cc12 [quinine]
recrudescence ([2]; 10 mg/kg x7 days): 16%
reduction in parasitaemia (time) [3]: 34.5 h

COc1ncnc(NS(=O)(=O)c2ccc(N)cc2)c1OC [sulfadoxin]
concentration giving 100% inhibition in vitro [4]: < 5.0 mmol/lit

CCO[C@H]1O[C@@H]2O[C@@]3(C)CC[C@H]4[C@H](C)CC[C@@H]([C@H]1C)[C@@]24OO3 [α/β arteether, α,β-Arteether]
fever clearance time [5]: 24 to 168 h
overall cure rate [5]: 93%
curative dose [6]: 7.5 mg/kg
% Cure rate [7, 12]: 0.0%
Mice remained negative on day 4 [7, 12]: 5/7
Mice remained negative on day 7 [7, 12]: 0/3
% Cure rate [7, 13]: 0.0%
Mice remained negative on day 4 [7, 13]: 3/7
Mice remained negative on day 7 [7, 13]: 0/5
% Cure rate [7, 14]: 14.28%
Mice remained negative on day 4 [7, 14]: 7/7
Mice remained negative on day 7 [7, 14]: 3/6
Mice remained negative on day 14 [7, 14]: 1/3
Mice remained negative on day 21 [7, 14]: 1/2
Mice remained negative on day 28 [7, 14]: 1/1
curative dose with oral formulation (calculated) ([7]; x4, oral, aqueous (tween 80/water)): 72 mg/kg
cure rate ([8]; 267 patients): 97%
fever clearance time [8]: 1 to 7 days
parasite clearance time [8]: 1 to 3 days
LD50 [1]: 1250 mg/kg
Cure rate (%) [9, 15]: 0.0%
Day 4 mice negative/total [9, 15]: 6/6
Day 7 mice negative/total [9, 15]: 2/6
Day 10 mice negative/total [9, 15]: 0/4
Cure rate (%) [9, 16]: 83.3%
Day 4 mice negative/total [9, 16]: 6/6
Day 7 mice negative/total [9, 16]: 6/6
Day 10 mice negative/total [9, 16]: 6/6
Day 14 mice negative/total [9, 16]: 6/6
Day 21 mice negative/total [9, 16]: 5/5
Day 28 mice negative/total [9, 16]: 5/5
Cure rate (%) [9, 17]: 83.3%
Day 4 mice negative/total [9, 17]: 6/6
Day 7 mice negative/total [9, 17]: 6/6
Day 10 mice negative/total [9, 17]: 6/6
Day 14 mice negative/total [9, 17]: 6/6
Day 21 mice negative/total [9, 17]: 5/5
Day 28 mice negative/total [9, 17]: 5/5
Cure rate (%) [9, 18]: 100%
Day 4 mice negative/total [9, 18]: 6/6
Day 7 mice negative/total [9, 18]: 6/6
Day 10 mice negative/total [9, 18]: 6/6
Day 14 mice negative/total [9, 18]: 6/6
Day 21 mice negative/total [9, 18]: 6/6
Day 28 mice negative/total [9, 18]: 6/6
Cure rate (%) [10, 19]: 0.0%
Day 4 mice negative/total [10, 19]: 3/6
Day 7 mice negative/total [10, 19]: 0/6
Cure rate (%) [10, 20]: 16.6%
Day 4 mice negative/total [10, 20]: 6/6
Day 7 mice negative/total [10, 20]: 5/6
Day 14 mice negative/total [10, 20]: 2/2
Day 18 mice negative/total [10, 20]: 1/2
Day 21 mice negative/total [10, 20]: 1/2
Day 28 mice negative/total [10, 20]: 1/1
Cure rate (%) [10, 21]: 66.6%
Day 4 mice negative/total [10, 21]: 6/6
Day 7 mice negative/total [10, 21]: 6/6
Day 14 mice negative/total [10, 21]: 4/4
Day 18 mice negative/total [10, 21]: 4/4
Day 21 mice negative/total [10, 21]: 4/4
Day 28 mice negative/total [10, 21]: 4/4
% Cure rate [11, 22]: 28.5%
Mice remained negative on day 4 [11, 22]: 5/7
Mice remained negative on day 7 [11, 22]: 3/7
Mice remained negative on day 14 [11, 22]: 2/2
Mice remained negative on day 21 [11, 22]: 2/2
Mice remained negative on day 28 [11, 22]: 2/2
% Cure rate [11, 23]: 57.1%
Mice remained negative on day 4 [11, 23]: 7/7
Mice remained negative on day 7 [11, 23]: 7/7
Mice remained negative on day 14 [11, 23]: 4/4
Mice remained negative on day 21 [11, 23]: 4/4
Mice remained negative on day 28 [11, 23]: 4/4
